# Patent US20060009425A1, “Oral formulations of paricalcitol” (priority 2004, published 2006)
# Experiments:
# Format in all cases: in vivo, human
# [1] = test system: serum parathyroid hormone (PTH) levels; assay: Phase 3 placebo-controlled once daily study, iPTH reduction (Example 8)
# Description: Methodology: This was a Phase 3, prospective, randomized, placebo-controlled, double-blind, 24-week Treatment Phase, multi-center study in CKD (Stages 3 and 4) subjects with elevated PTH levels (≧150 pg/mL). Subjects were randomized in an equal ratio (1:1) to 1 of 2 treatment groups: Paricalcitol capsule (Group 1) and placebo (Group 2). Potential subjects underwent procedures to determine their baseline intact PTH (iPTH), calcium, and phosphorus levels for eligibility to receive treatment.
# (§1) During the Treatment Phase, subjects were to self-administer study drug once daily for a total of 24 weeks. The initial dose was 1 or 2 mcg (depending on baseline iPTH levels). Procedures to be performed during the Treatment Phase included vital signs, chemistry and hematology, urinary pyridinoline, urinary deoxypyridinoline, serum bone-specific alkaline phosphatase, serum osteocalcin, urinalysis, spot urine for calcium/creatinine ratio, and recording of adverse events and concurrent medications. Serum iPTH, calcium, phosphorus, and albumin were measured every 2 weeks. Dose adjustments were to be made according to these chemistry results for iPTH, calcium, and phosphorus. Doses may have been increased in 1 mcg increments every 4 weeks. Dose reductions were to occur according to a protocol-specified algorithm. However, dosing could have been adjusted any time if, in the judgment of the Investigator, a risk to subject safety existed.
# Efficacy: The primary efficacy endpoint was the achievement of 2 consecutive >30% decreases from baseline iPTH levels.
# The secondary efficacy analyses include change and percent change from baseline analyses in iPTH and change from baseline analyses in biochemical bone activity markers.
# The Intent-To-Treat population (Full Analysis Set) was defined as all randomized subjects with a baseline iPTH and at least 2 on-treatment iPTH measurements. This population was used in the primary efficacy analysis.
# [2] = Phase 3 TIW study, safety (Example 7)
# Method: Safety: Safety was assessed through an evaluation of clinically meaningful hypercalcemia (2 consecutive calcium results >10.5 mg/dL). Additionally, safety was assessed by the incidence of adverse events, the change from baseline in chemistry, hematology and urinalysis laboratory variables, the change from baseline in subject vital signs, and progressive changes in renal function observed via changes in eGFR.
# All randomized subjects who received at least 1 dose of study drug were used in safety analyses. The primary safety analysis was a comparison between the paricalcitol and placebo treatment groups of the proportion of subjects achieving clinically meaningful hypercalcemia (2 consecutive calcium measurements >10.5 mg/dL). This comparison was performed using a Fisher's exact test. Secondary safety analyses were performed comparing changes/percent changes from baseline between the paricalcitol and placebo treatment groups using a one-way ANOVA with treatment group as the factor for the following variables: hematology, complete chemistry, and urinalysis variables; 24-hour urine collections, eGFR, urinary calcium/creatinine ratio, cardiovascular markers, and vital signs. Secondary safety analyses also consisted of an analysis of “treatment-emergent” adverse events (i.e., adverse events with an onset date on or after the date the first dose of study drug was taken). Adverse events were summarized by body system and COSTART term according to the COSTART V adverse event-coding dictionary. Comparisons of the percentage of subjects experiencing an adverse event between the Oral paricalcitol and placebo treatment groups were performed using a Fisher's exact test.
# [3] = test system: biochemical bone activity markers; assay: Phase 3 once daily study, biochemical bone activity markers (Table E); conditions: CKD Stage 3 and 4, daily (QD) treated subjects (Table E)
# Method: (§2) Serum bone-specific alkaline phosphate and serum osteocalcin are considered more sensitive bone markers to evaluate degree of bone remodeling than urinary bone marker. […] As shown in Examples 5-7 and Tables C (Example 5), Table D (Example 6) and Table E (Example 7), certain biochemical bone activity marker variables were analyzed in CKD Stage 3 and 4 subjects. These subjects received treatment with the oral formulations of the present invention or a placebo. The bone markers examined in these subjects were serum osteocalcin, serum bone-specific alkaline phosphatase, urinary pyridinoline, and deoxypyridinoline. If more than 1 biochemical bone activity marker measurement existed for a subject on a particular day, the higher measurement was considered to be that subject's biochemical bone activity marker measurement for that day. […] The Final Visit measurement was defined as the last biochemical bone activity marker measurement following the first dose of study drug.
# (§3) The Week 11 Visit measurement was defined as the biochemical bone activity marker measurement on the day closest to the Week 11 scheduled visit, for which the possible measurements to choose from were those collected within 64 and 77 days following the first dose of study drug.
# (§4) Changes from baseline to Week 11 Visit and to Final Visit in biochemical bone activity markers were compared between oral paricalcitol and placebo using an ANOVA with treatment as the factor on the combined Phase 3 all treated subject population (Table F). Also, the changes from baseline to Week 11 Visit and to Final Visit were compared between oral paricalcitol and placebo using an ANCOVA with baseline as the second factor on the combined Phase 3 all treated subject population (Table G).
# as §1
# [4] = test system: biochemical bone activity markers; assay: Phase 3 TIW study, biochemical bone activity markers (Table D); conditions: CKD Stage 3 and 4, TIW treated subjects (Table D)
# Method: as §2, §3, §4
# as §1, with “drug 3 times weekly, on Monday, Wednesday and Friday,” for “drug once daily”, “was 2” for “was 1”, “or 4” for “or 2”, “in 2” for “in 1”, “weeks.” for “weeks. Dose reductions were to occur according to a protocol-specified algorithm. However, dosing could have been adjusted any time if, in the judgment of the Investigator, a risk to subject safety existed.”
smiles,measurement,setting,value
"C[C@H](/C=C/[C@H](C)C(C)(C)O)[C@H]1CC[C@H]2/C(=C/C=C3C[C@@H](O)C[C@H](O)C3)CCC[C@]12C [Paricalcitol, 19-nor-1α,3β,25-trihydroxy-9,10-secoergosta-5(Z); 7(E),22(E)-triene]",subjects with 4 consecutive ≧30% decreases from baseline in iPTH,"[1]; 23/33, exploratory analysis",70%
same,subjects with 2 consecutive ≧30% decreases from baseline in iPTH,"[1]; 30/33, once daily, 24 weeks, CKD Stages 3 and 4",91%
same,maximum decrease from baseline in iPTH,[1]; observed at Week 23,−52.4%
same,30% mean reduction in iPTH occurred by,[1]; once daily,≤ 7 Week
same,mean change from baseline in iPTH at the Final Visit,"[1]; once daily, 24 weeks",-46.9 pg/mL
same,mean change from baseline in iPTH at the Last On-Treatment Visit,"[1]; once daily, 24 weeks",-130.8 pg/mL
same,percent decrease in iPTH at the Final Visit,"[1]; once daily, 24 weeks",15.2%
same,percent decrease in iPTH at the Last On-Treatment Visit,"[1]; once daily, 24 weeks",50.0%
same,safety and tolerability,[2]; CKD (Stages 3 and 4) subjects,safe and well tolerated
same,adverse events considered not related to study drug administration,"[2]; TIW, 24 weeks",81%
same,adverse events mild or moderate in severity,"[2]; TIW, 24 weeks",96%
same,subjects with treatment-emergent adverse events,"[2]; TIW, 24 weeks",76%
same,"mean calcium values, range over scheduled visits",[2]; Treatment Phase,9.36 to 9.62 mg/dL
same,subjects reporting serious adverse events,[2]; Treatment and Follow-Up Phases,6 subjects
same,adverse event incidence: diarrhea,[2]; in vivo,9%
same,adverse event incidence: dizziness,[2]; in vivo,12%
same,adverse event incidence: edema,[2]; in vivo,9%
same,adverse event incidence: hypotension,[2]; in vivo,12%
same,adverse event incidence: uremia,[2]; in vivo,12%
same,"serum calcium, mean change from baseline to Last On-Treatment Visit",[2]; in vivo,0.19 mg/dL
same,subjects terminated prematurely due to adverse events,[2]; in vivo,1 subjects
same,subjects who developed clinically meaningful hypercalcemia (at least 2 consecutive calcium values >10.5 mg/dL),[2]; in vivo,1/33
same,"eGFR, mean percent change from baseline to Final Visit",[2]; subjects who completed 24 weeks of treatment,−16.61%
same,"Serum Bone-Specific Alkaline Phosphatase, Change from Baseline (SE) to Final",[3],−7.575 (1.3976) mcg/L
same,"Serum Bone-Specific Alkaline Phosphatase, Change from Baseline (SE) to Week 11",[3],−5.383 (1.0482) mcg/L
same,"Serum Osteocalcin, Change from Baseline (SE) to Final",[3],−27.07 (5.544) ng/mL
same,"Serum Osteocalcin, Change from Baseline (SE) to Week 11",[3],−0.22 (4.968) ng/mL
same,"Urinary Deoxypyridinoline, Change from Baseline (SE) to Final",[3],0.0100 (0.01392) nmol/mg Creat
same,"Urinary Deoxypyridinoline, Change from Baseline (SE) to Week 11",[3],−0.0216 (0.01018) nmol/mg Creat
same,"Urinary Pyridinoline, Change from Baseline (SE) to Final",[3],0.26 (4.452) nmol/mmol Creat
same,"Urinary Pyridinoline, Change from Baseline (SE) to Week 11",[3],−5.27 (3.884) nmol/mmol Creat
same,"Serum Bone-Specific Alkaline Phosphatase, Change from Baseline (SE) to Final",[4],−8.179 (1.2010) mcg/L
same,"Serum Bone-Specific Alkaline Phosphatase, Change from Baseline (SE) to Week 11",[4],−5.078 (0.9420) mcg/L
same,"Serum Osteocalcin, Change from Baseline (SE) to Final",[4],−18.92 (3.973) ng/mL
same,"Serum Osteocalcin, Change from Baseline (SE) to Week 11",[4],−6.96 (3.259) ng/mL
same,"Urinary Deoxypyridinoline, Change from Baseline (SE) to Final",[4],−0.0182 (0.0062) nmol/mg Creat
same,"Urinary Deoxypyridinoline, Change from Baseline (SE) to Week 11",[4],−0.0144 (0.00813) nmol/mg Creat
same,"Urinary Pyridinoline, Change from Baseline (SE) to Final",[4],−7.11 (2.828) nmol/mmol Creat
same,"Urinary Pyridinoline, Change from Baseline (SE) to Week 11",[4],−4.87 (3.725) nmol/mmol Creat
